Assay results: patent publication US12583866B2, “Pyrido[2,3-b][1,4]oxazines or tetrahydropyrido[2,3-b][1,4]oxazepines as IAP antagonists” (BEIGENE, LTD., priority 2020, dated 2026)
Structures can show the parent of a compound that is named as a salt.

Key:
[1] = molecular target: T1, recombinant human cIAP1-BIR3 protein (Homo sapiens, UniProt Q13490); assay: Recombinant human c-IAP1-BIR3 biochemical assay (HTRF, peptide displacement); details: 1.2 nM cIAP1-BIR3, 3 nM AbuRPF-K(5-Fam)-NH2 peptide, read-out: Protein binding IC50 (nM) c-IAP1
T1 construct: recombinant human cIAP1-BIR3 protein; purchased Reaction biology APT-11-370
T1 sequence (Q13490 253-363 limits assumed): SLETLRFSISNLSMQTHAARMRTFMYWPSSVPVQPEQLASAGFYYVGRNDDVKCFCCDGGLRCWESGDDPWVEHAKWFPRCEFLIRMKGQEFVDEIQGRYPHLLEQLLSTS
Protocol: I. Recombinant human c-IAP1-BIR3 biochemical assay
(§1) Compounds disclosed herein were tested for blocking of recombinant human cIAP1-BIR3 protein (Cat: APT-11-370, Reaction biology) with its peptide in an assay based on Homogeneous Time Resolved Fluorescence. 1.2 nM recombinant human cIAP1-BIR3 protein was pre-incubated with a serial dilution of compounds disclosed herein (maximum concentration is 10 uM, 4-fold serially diluted, 10 points) at room temperature for 1 hour in an assay buffer containing 20 mM HEPES, pH 7.5, 50 mM NaCl, 0.005% Tween-20, 1 mM DTT. Then 3 nM AbuRPF-K (5-Fam)-NH2 (Cat: 709702, GL Biochem) was added to plate incubated at room temperature for 1 hour. Mab Anti-6His Tb cryptate Gold (Cat: 61HI2TLB, Cisbio Bioassays) was added to plate and further incubated at room temperature for 1 hour. The HTRF signals (ex337 nm, em520 nm/490 nm) were read on BMG PHERAstar FS instrument. The inhibition percentage of cIAP1-BIR3 interaction with its peptide in presence of increasing concentrations of compounds was calculated based on the ratio of fluorescence at 520 nm to that at 490 nm. The IC50 for each compound was derived from fitting the data to the four-parameter logistic equation by Dotmatics and summarized in table 1.

[2] = molecular target: T2, recombinant human cIAP2-BIR3 protein (Homo sapiens, UniProt Q13489); assay: Recombinant human c-IAP2-BIR3 biochemical assay (HTRF, peptide displacement); details: 3.7 nM cIAP2-BIR3, 3.7 nM AbuRPF-K(5-Fam)-NH2 peptide, read-out: Protein binding IC50 (nM) c-IAP2
T2 construct: recombinant human cIAP2-BIR3 protein; purchased Reaction biology APT-11-372
T2 sequence (Q13489 238-349 limits assumed): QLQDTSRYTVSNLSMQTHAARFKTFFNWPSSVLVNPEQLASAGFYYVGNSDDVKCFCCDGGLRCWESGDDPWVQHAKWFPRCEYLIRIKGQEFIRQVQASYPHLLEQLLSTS
Protocol: II. Recombinant Human c-IAP2-BIR3 Biochemical Assay
as §1, with “human cIAP2-BIR3” for “human cIAP1-BIR3”, “(Cat: APT-11-372,” for “(Cat: APT-11-370,”, “Fluorescence. 3.7” for “Fluorescence. 1.2”, “Then 3.7” for “Then 3”, “nM AbuRPF-K(5-Fam)-NH2” for “nM AbuRPF-K (5-Fam)-NH2”, “of cIAP2-BIR3” for “of cIAP1-BIR3”

[3] = molecular target: T3, recombinant human XIAP-BIR3 protein (Homo sapiens, UniProt P98170); assay: Recombinant human XIAP-BIR3 biochemical assay (HTRF, peptide displacement); details: 3.7 nM XIAP-BIR3, 7.6 nM AbuRPF-K(5-Fam)-NH2 peptide, read-out: Protein binding IC50 (nM) XIAP
T3 construct: recombinant human XIAP-BIR3 protein; purchased Reaction biology APT-11-374
T3 sequence (P98170 241-356 limits assumed): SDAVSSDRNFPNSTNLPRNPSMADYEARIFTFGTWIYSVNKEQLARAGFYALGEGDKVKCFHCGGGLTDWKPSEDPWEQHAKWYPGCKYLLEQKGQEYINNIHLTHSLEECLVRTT
Protocol: III. Recombinant Human XIAP-BIR3 Biochemical Assay
as §1, with “human XIAP-BIR3” for “human cIAP1-BIR3”, “(Cat: APT-11-374,” for “(Cat: APT-11-370,”, “Fluorescence. 3.7” for “Fluorescence. 1.2”, “Then 7.6” for “Then 3”, “nM AbuRPF-K(5-Fam)-NH2” for “nM AbuRPF-K (5-Fam)-NH2”, “of XIAP-BIR3” for “of cIAP1-BIR3”

Row | SMILES | IC50 [1] [nM] | IC50 [2] [nM] | IC50 [3] [nM]
1 | C[C@@H]1CN(CC(=O)N2c3cc(Cc4ccc(F)cc4)cnc3OC[C@@H]2C2CC2)[C@@H](CN2[C@H](C)COC[C@H]2C)CN1 [Compound 27, 1-((S)-2-cyclopropyl-7-(4-fluorobenzyl)-2,3-dihydro-1H-pyrido[2,3-b][1,4]oxazin-1-yl)-2-((2R,5R)-2-(((3R,5R)-3,5-dimethylmorpholino)methyl)-5-methylpiperazin-1-yl)ethan-1-one] | 0.2 | 0.5 | 14
2 | C[C@@H]1CN(CC(=O)N2c3cc(Cc4ccc(F)cc4)cnc3OC[C@@H]2C2CCCCC2)[C@@H](CN2CCOC[C@H]2C)CN1 [Compound 42, 1-((S)-2-cyclohexyl-7-(4-fluorobenzyl)-2,3-dihydro-1H-pyrido[2,3-b][1,4]oxazin-1-yl)-2-((2R,5R)-5-methyl-2-(((R)-3-methylmorpholino)methyl)piperazin-1-yl)ethan-1-one] | 0.34 | 0.52 | 25
3 | C[C@@H]1CN(CC(=O)N2c3cc(Cc4ccc(F)cc4)c(C(=O)N4CC[C@@H](F)C4)nc3OC[C@@H]2C)[C@@H](CN2[C@H](C)COC[C@H]2C)CN1 [Compound 101, 2-((2R,5R)-2-(((3R,5R)-3,5-dimethylmorpholino)methyl)-5-methylpiperazin-1-yl)-1-((S)-7-(4-fluorobenzyl)-6-((R)-3-fluoropyrrolidine-1-carbonyl)-2-methyl-2,3-dihydro-1H-pyrido[2,3-b][1,4]oxazin-1-yl)ethan-1-one] | 0.19 | 0.37 | 2.5
4 | C[C@@H]1CN(CC(=O)N2c3cc(Cc4ccc(F)cc4)c(C(N)=O)nc3OC[C@@H]2C)[C@@H](CN2[C@H](C)COC[C@H]2C)CN1 [Compound 32, (S)-1-(2-((2R,5R)-2-(((3R,5R)-3,5-dimethylmorpholino)methyl)-5-methylpiperazin-1-yl)acetyl)-7-(4-fluorobenzyl)-2-methyl-2,3-dihydro-1H-pyrido[2,3-b][1,4]oxazine-6-carboxamide] | 0.25 | 0.36 | 5.8
5 | C[C@@H]1CN(CC(=O)N2c3cc(Cc4ccc(F)cc4)c(C(=O)NCC4CCN(C)CC4)nc3OC[C@@H]2C)[C@@H](CN2[C@H](C)COC[C@H]2C)CN1 [Compound 98, (S)-1-(2-((2R,5R)-2-(((3R,5R)-3,5-dimethylmorpholino)methyl)-5-methylpiperazin-1-yl)acetyl)-7-(4-fluorobenzyl)-2-methyl-N-((1-methylpiperidin-4-yl)methyl)-2,3-dihydro-1H-pyrido[2,3-b][1,4]oxazine-6-carb oxamide] | 0.13 | 0.29 | 8.2
6 | C[C@@H]1CN(CC(=O)N2c3cc(Cc4ccc(F)cc4)cnc3OCC23CC3)[C@@H](CN2CCOC[C@H]2C)CN1 [Compound 20, 1-(7′-(4-fluorobenzyl)-1′H,3′H-spiro[cyclopropane-1,2′-pyrido[2,3-b][1,4]oxazin]-1′-yl)-2-((2R,5R)-5-methyl-2-(((R)-3-methylmorpholino)methyl)piperazin-1-yl)ethan-1-one hydrochloride] | 9.9 | 25 | 140
7 | C[C@@H]1CN(CC(=O)N2CCOc3nc(C(N)=O)c(Cc4ccc(F)cc4)cc32)[C@@H](CN2CCOC[C@H]2C)CN1 [Compound 3, 7-(4-fluorobenzyl)-1-(2-((2R,5R)-5-methyl-2-(((R)-3-methylmorpholino)methyl)piperazin-1-yl)acetyl)-2,3-dihydro-1H-pyrido[2,3-b][1,4]oxazine-6-carboxamide formate] | 1.5 | 3.2 | 23
8 | C[C@@H]1CN(CC(=O)N2c3cc(Cc4ccc(F)cc4)c(C(=O)N(C)C)nc3OC[C@@H]2C)[C@@H](CN2[C@H](C)COC[C@H]2C)CN1 [Example 80, (S)-1-(2-((2R,5R)-2-(((3R,5R)-3,5-dimethylmorpholino)methyl)-5-methylpiperazin-1-yl)acetyl)-7-(4-fluorobenzyl)-N,N,2-trimethyl-2,3-dihydro-1H-pyrido[2,3-b][1,4]oxazine-6-carboxamide] | 0.22 | 0.3 | 4.9
9 | C[C@@H]1CN(CC(=O)N2c3cc(Cc4ccc(F)cc4)c(CO)nc3OC[C@@H]2C)[C@@H](CN2CCOCC2(C)C)CN1 [Compound 48] | 0.45 | 0.79 | 12
10 | C[C@@H]1CN(CC(=O)N2c3cc(Cc4ccc(F)cc4)c(CO)nc3OC[C@@H]2C)[C@@H](CN2CCOC[C@@H]2C2CC2)CN1 [Example 84B] | 0.78 | 1.6 | 46
11 | COC[C@H]1COc2nc(CO)c(Cc3ccc(F)cc3)cc2N1C(=O)CN1C[C@@H](C)NC[C@@H]1CN1[C@H](C)COC[C@H]1C [Compound 58, 2-((2R,5R)-2-(((3R,5R)-3,5-dimethylmorpholino)methyl)-5-methylpiperazin-1-yl)-1-((S)-7-(4-fluorobenzyl)-6-(hydroxymethyl)-2-(methoxymethyl)-2,3-dihydro-1H-pyrido[2,3-b][1,4]oxazin-1-yl)ethan-1-one] | 0.11 | 0.17 | 9.5
12 | C[C@@H]1CN(CC(=O)N2c3cc(Cc4ccc(F)cc4)cnc3OC[C@@H]2C)[C@@H](CN2CCOC[C@H]2C)CN1 [Compound 19A, 1-((S)-7-(4-fluorobenzyl)-2-methyl-2,3-dihydro-1H-pyrido[2,3-b][1,4]oxazin-1-yl)-2-((2R,5R)-5-methyl-2-(((R)-3-methylmorpholino)methyl)piperazin-1-yl)ethan-1-one] | 0.13 | 0.25 | 2.7
13 | C[C@@H]1CN(CC(=O)N2CCOc3nc(C4CC4)c(Cc4ccc(F)cc4)cc32)[C@@H](CN2CCOC[C@H]2C)CN1 [Compound 6, 1-(6-cyclopropyl-7-(4-fluorobenzyl)-2,3-dihydro-1H-pyrido[2,3-b][1,4]oxazin-1-yl)-2-((2R,5R)-5-methyl-2-(((R)-3-methylmorpholino)methyl)piperazin-1-yl)ethan-1-one] | 1.1 | 3 | 61
14 | C[C@@H]1CN(CC(=O)N2c3cc(Cc4ccc(F)cc4)c(-c4ccc(F)cc4)nc3OC[C@@H]2C)[C@@H](CN2[C@H](C)COC[C@H]2C)CN1 [Compound 113] | 0.25 | 0.36 | 5.4
15 | CCOC[C@@H]1COCCN1C[C@H]1CN[C@H](C)CN1CC(=O)N1c2cc(Cc3ccc(F)cc3)c(CO)nc2OC[C@@H]1C [Compound 53] | 0.46 | 1.2 | 12
